Results as given in BindingDB's records for doi:10.1016/j.ejmech.2021.113585 (Fudan University, 2021).

test: Agonist activity at RORgammat in C57 mouse CD4+ T cells assessed as induction of Th17 cells differentiation by measuring increase in IL17 production measured after 4 days by flow cytometry analysis

Row | EC50 | SMILES
1 | 230 nM | CC(=O)N1CCN(c2ccc3c(c2)CCN(S(=O)(=O)N(C)Cc2ccccc2Cl)C3)CC1
2 | 220 nM | CC(=O)N1CCN(c2ccc3c(c2)CCN(S(=O)(=O)N(C)Cc2c(F)cccc2Cl)C3)CC1
3 | 1120 nM | CC(=O)N1CCN(c2ccc3c(c2)CCN(S(=O)(=O)N(C)Cc2ccccc2C(F)(F)F)C3)CC1
